# Reference: US7988972B2, “Immunoreactive peptides from Epstein-Barr virus” (Ortho-Clinical Diagnostics, Inc., priority 1993, dated 2011)
# Experiments:
# [1] = tested on: CD4+ T-cell subpopulation; assay: Proliferation assay with CD4+-enriched T-cell subpopulation; assay type: cell-based, human
# Protocol: (§1) PBL enriched for T-cell subpopulations were isolated by depleting a particular population by antibody/complement-mediated cytotoxicity. CD4^+ cells were prepared by lysing CD8^+ cells with anti-CD8 antibody and rabbit complement whereas the CD8^+ T cell subpopulation was enriched by lysing CD4^+ cells with an anti-CD4 antibody and rabbit complement.
# (§2) PBL were resuspended in RPMI-1640 medium containing 2 mM L-glutamine, 25 mM HEPES, and 10 μg per ml gentamicin (HEPES media) at a concentration of 20×10^6 cells per ml. T cell specific MAb, OKT4 or OKT8 (Ortho Diagnostics Inc.), was added to the cells at the optimal concentration (previously determined by titration to give maximal lysis) and incubated on ice for 30 minutes. The cells were then washed with fresh HEPES media and resuspended at 10×10^6 cells per ml in baby rabbit complement (Pel-Freez Clinical Systems) diluted with the HEPES media to the appropriate concentration (previously assayed to give maximal antibody-specific cytotoxicity). The cells were incubated for 45 minutes in a 37° C. water bath with gentle mixing every 15 minutes. After incubation, the cells were washed thoroughly with the HEPES media and an aliquot (1-2×10^6) of cells was removed and stained for flow cytometric analysis which was performed as described below. […]
# [2] = tested on: CD8+ T-cell subpopulation; assay: Proliferation assay with CD8+-enriched T-cell subpopulation; assay type: cell-based, human
# Protocol: as §1, §2
# [3] = tested on: peripheral blood lymphocytes (PBL); assay: Proliferation assay of peripheral blood lymphocytes (3H-thymidine incorporation); assay type: cell-based, human; conditions: for 3H-thymidine Incorporation (cpm + S.D.) / S.I. (stimulation index): PBL from anti-VCA-positive, anti-EA-positive donor, 5 days
# Protocol: Proliferation assays. T-cell proliferation assays using the native p17 or p50 polypeptide or the synthetic peptides were performed as previously described in detail (Pothen et al., Int. J. Cancer, 49:656-660, 1991). Briefly, peripheral blood lymphocytes (PBLO from sero-positive donors were isolated on FICOLL-HYPAQUE gradients, washed and resuspended in RPMI 1640 media containing 10% heat-inactivated human A^+ serum from a sero-negative donor. Cells (1×10^5 per 0.1 ml) were then added to each well in 96-well, round-bottomed tissue culture plates (Costar, Cambridge, Mass.). The different antigen preparations were added to triplicate wells in 0.1 ml volumes and the plates were incubated at 37° C. for 5 days. ^3H-thymidine (5 Ci per mM) was added at a concentration of 1 μCi per well over the last 4 hours of culture. The cells were then harvested with a multichannel sample harvester and ^3H-thymidine incorporation was determined using a Beckman Model LS 3801 liquid scintillation counter. Stimulation indices for the test antigens were calculated by dividing the average counts per minute (CPMO for the test antigens by the average CPM of the medium control wells.
# PBL from asymptomatic EBV-infected individuals were tested for response to any of the three p17 synthetic peptides (Table 1) by a proliferation assay using lymphocytes previously shown to proliferate in the presence of native p17 (Pothen et al., Int. J. Cancer, 49:656-660, 1991). Different concentrations of the synthetic peptides were incubated with the PBL for 5 days and then proliferation was assayed by the incorporation of ^3H-thymidine. The native p17 purified from activated P3HR-1 cells gave a S.I. of 15.8 in this experiment. […] Neither of the other synthetic peptides induced a proliferation response at the concentrations tested.
# PBL from 3 anti-VCA-positive anti-EA-antibody-negative individuals were also examined in the proliferation assay with the three synthetic peptides. Again, all 3 PBL preparations responded to the highest concentrations of p17.1 with S.I.'s ranging from 3.5-11. Two of the preparations (FIG. 2A,C) also proliferated in the presence of lower concentrations of antigen with S.I.'s of 3 and 5 respectively. […] These experiments established that T-lymphocytes from EBV-infected individuals, irrespective of the presence of antibody to EA, recognized a dominant epitope on p17.
# [4] = tested on: anti-EA antibodies in human sera; assay: Serological reactivity of different sera (VCA-EA-, VCA+EA+, VCA+EA-) with p50.10; assay type: binding
# Protocol: Serological reactivity of different sera (VCA−EA−, VCA+EA+, VCA+EA−) with the p50.10 synthetic peptide was performed as described in Example 1, according to Pothen, et al., supra.
Sequence,"S.I. ([1]; CD4+ subpopulation from donor A, different concentrations)",proliferation response ([1]; CD4+ subpopulation from donor B),proliferation response ([2]; CD8+ subpopulation from donor A),"S.I. ([2]; CD8+ subpopulation from donor B, 50 μg per ml)","S.I. ([3]; PBL from 3 anti-VCA-positive anti-EA-antibody-negative individuals, highest concentrations)",3H-thymidine Incorporation (cpm + S.D.) ([3]; 3.12 μg/ml),S.I. (stimulation index) ([3]; 3.12 μg/ml),3H-thymidine Incorporation (cpm + S.D.) ([3]; 12.5 μg/ml),S.I. (stimulation index) ([3]; 12.5 μg/ml),3H-thymidine Incorporation (cpm + S.D.) ([3]; 50 μg/ml),S.I. (stimulation index) ([3]; 50 μg/ml),"S.I. ([3]; PBL preparation of FIG. 2A (anti-VCA-positive, anti-EA-negative), lower concentrations of antigen)","S.I. ([3]; PBL preparation of FIG. 2C (anti-VCA-positive, anti-EA-negative), lower concentrations of antigen)","proliferation response ([3]; unfractionated PBL of donors A and B, highest concentrations tested (100 μg per ml donor A, 50 μg per ml donor B))",reactivity with anti-EA antibody negative sera [4]
"ETFTETWNRFITHTE [p17.1, synthetic peptide from 17 Kd early antigen (EA-R) region of EBV]",≤ 5.3,responded,unresponsive,greater than 3,3.5-11,263 ± 57 cpm,1.8,689 ± 88 cpm,4.7,1584 ± 37 cpm,10.8,3,5,proliferated,–
"KQKHPKKVKQAFNPL [p50.10, synthetic peptide from 50 Kd early antigen (EA-D) region of EBV]",–,–,–,–,–,–,–,–,–,–,–,–,–,–,lack of reactivity
